Results as given in US8119614B2, “Substitution derivatives of N6-benzyladenosine, methods of their preparation, their use for preparation of drugs, cosmetic preparations and growth regulators, pharmaceutical preparations, cosmetic preparations and growth regulators containing these compounds” (Ustav Experimentalni Botaniky Akademie Ved Ceske Republiky, priority 2002, dated 2012).

Key:
[1] = tested on: Human T-lymphoblastic leukemia cell line CEM; test: In vitro cytotoxic activity, Calcein AM assay, CEM; assay type: cell-based; details: 72 hours
Source text: (§1) One of the parameters used, as the basis for cytotoxicity assays, is the metabolic activity of viable cells. For example, a microtiter assay, which uses the Calcein AM, is now widely used to quantitate cell proliferation and cytotoxicity. For instance, this assay is used in drug screening programs and in chemosensitivity testing. Because only metabolically active cells cleave Calcein AM, these assays detect viable cells exclusively. The quantity of reduced Calcein AM corresponds to the number of vital cells in the culture.
(§2) Human T-lymphoblastic leukemia cell line CEM; promyelocytic HL-60 and monocytic U937 leukemias; breast carcinoma cell lines MCF-7; cervical carcinoma cells HELA; mouse fibroblasts NIH3T3; human erythroleukaemia K562 and human malignant melanoma cells G361 were used for routine screening of compounds. The cells were maintained in Nunc/Corning 80 cm^2 plastic tissue culture flasks and cultured in cell culture medium (DMEM with 5 g/l glucose, 2 mM glutamine, 100 U/ml penicillin, 100 μg/ml streptomycin, 10% fetal calf serum and sodium bicarbonate).
(§3) The cell suspensions that were prepared and diluted according to the particular cell type and the expected target cell density (10^4 cells per well based on cell growth characteristics) were added by pipette (80 μl) into 96/well microtiter plates. Inoculates were allowed a pre-incubation period of 24 hours at 37° C. and 5% CO2 for stabilisation. Four-fold dilutions of the intended test concentration were added at time zero in 20 μl aliquots to the microtiter plate wells. Usually, test compound was evaluated at six 4-fold dilutions. In routine testing, the highest well concentration was 166.7 μM, but it can be the matter of change dependent on the agent. All drug concentrations were examined in duplicates. Incubations of cells with the test compounds lasted for 72 hours at 37° C., in 5% CO2 atmosphere and 100% humidity. At the end of incubation period, the cells were assayed by using the Calcein AM. Ten microliters of the stock solution were pipetted into each well and incubated further for 1 hours. Fluorescence (FD) was measured with the Labsystem FIA Reader Fluoroscan Ascent (UK). The tumour cell survival (GI50) was calculated using the following equitation: GI50=(FDdrug exposed well/mean FDcontrol wells)×100%. The GI50 value, the drug concentration lethal to 50% of the tumour cells, was calculated from the obtained dose response curves (FIG. 3).

[2] = tested on: human erythroleukaemia K562; test: In vitro cytotoxic activity, Calcein AM assay, K-562; assay type: cell-based; details: 72 hours, read-out: IC 50 K-562
Source text: as §1, §2, §3

HOS = test: In vitro cytotoxic activity, Calcein AM assay, HOS; assay type: cell-based; details: 72 hours
promyelocytic HL-60 = test: In vitro cytotoxic activity, Calcein AM assay, HL60; assay type: cell-based, human; details: 72 hours, read-out: IC 50 HL60
Source text: as §1, §2, §3

[3] = tested on: human malignant melanoma cells G361; test: In vitro cytotoxic activity, Calcein AM assay, G-361; assay type: cell-based; details: 72 hours, read-out: IC 50 G-361
Source text: as §1, §2, §3

[4] = tested on: breast carcinoma cell lines MCF-7; test: In vitro cytotoxic activity, Calcein AM assay, MCF7; assay type: cell-based, human; details: 72 hours, read-out: IC 50 MCF7
Source text: as §1, §2, §3

mouse fibroblasts NIH3T3 = test: In vitro cytotoxic activity, Calcein AM assay, NIH-3T3; assay type: cell-based; details: 72 hours, read-out: IC 50 NIH-3T3
Source text: as §1, §2, §3

[5] = tested on: Triticum aestivum cv. Hereward; test: Senescence inhibition on winter wheat leaf segments (chlorophyll retention); assay type: in vivo; details: for Concentration with highest activity: chlorophyll retention in excised wheat leaf tips, 96 h dark; for Activity (%) [10^−4 mol · l^−1 BAP = 100%]: chlorophyll retention, at concentration with highest activity
Procedure: Seeds of winter wheat, Triticum aestivum cv. Hereward, were washed under running water for 24 hours and then sown on vermiculite soaked with Knop's solution. They were placed in the grown chamber at 15° C. with a 16/8 h light period at 50 μmol·m^−2·s^−1. After 7 days, the first leaf was fully developed and the second leaf had started to grow. A tip section of the first leaf, approximately 35 mm long, was removed from 5 seedlings and trimmed slightly to a combined weight of 100 mg. The basal ends of the five leaf tips were placed in the wells of a microtiter polystyrene plate containing 150 μl of a cytokinin solution each. The entire plate was inserted into a plastic box lined with paper tissues soaked in distilled water to prevent leaf sections from drying out. After a 96 h incubation in the dark at 25° C., the leaves were removed and chlorophyll extracted by heating at 80° C. for 10 min in 5 ml of 80% ethanol (v/v). The sample volume was then restored to 5 ml by the addition of 80% ethanol (v/v). The absorbency of the extract was recorded at 665 nm. In addition, chlorophyll extracts from fresh leaves and leaf tips incubated in deionised water were measured. From the obtained data, the concentration with highest activity was selected for each compound tested. Relative activity of the compound at this concentration was calculated (Tab. 10). The activity obtained for 10^−4 M 6-benzylaminopurine (BAP) was postulated as 100%. The values shown are means of five replicates and the whole experiment was repeated twice. The cytokinins to be tested were dissolved in dimethylsulfoxide (DMSO) and the solution brought up to 10^−3M with distilled water. This stock was further diluted in distilled water to concentrations ranging from 10^−8M to 10^−4M.

[6] = tested on: tobacco callus Nicotiana tabacum L. cv. Wisconsin 38; test: Growth of cytokinin-dependent tobacco callus; assay type: cell-based; details: for Activity (%) [10^−5 mol · l^−1 BAP = 100%]: callus growth, at concentration with highest activity; for Concentration with highest activity: fresh callus weight after four weeks
Procedure: Cytokinin-dependent tobacco callus Nicotiana tabacum L. cv. Wisconsin 38 was maintained at 25° C. in darkness on modified Murashige-Skoog medium, containing per 1 liter: 4 μmol nicotinic acid, 2.4 μmol pyridoxine hydrochloride, 1.2 μmol thiamine, 26.6 μmol glycine, 1.37 μmol glutamine, 1.8 μmol myo-inositol, 30 g of sucrose, 8 g of agar, 5.37 μmol α-naphtylacetic acid (NAA) and 0.5 μmol benzylaminopurine (BAP). Subcultivation was carried out every three weeks. Fourteen days before the bioassay, the callus tissue was transferred to the media without 6-benzylaminopurine (BAP). Biological activity was determined from the increase in fresh callus weight after four weeks of cultivation. Five replicates were prepared for each cytokinin concentration and the entire test was repeated twice. From the obtained data, the concentration with highest activity was selected for each compound tested. Relative activity of the compound at this concentration was calculated (Tab. 6). […] The cytokinins to be tested were dissolved in dimethylsulfoxide (DMSO) and the solution brought up to 10^−3M with distilled water. This stock was further diluted in the respective media used for the biotest to concentrations ranging from 10^−8M to 10^−4M.

[7] = tested on: Amaranthus caudatus cotyledon/hypocotyl explants; test: Amaranthus bioassay (betacyanin content); assay type: in vivo; details: for Concentration with highest activity: 48 h dark; for Activity (%) [10^−5 mol · l^−1 BAP = 100%]: at concentration with highest activity
Procedure: Standard Amaranthus bioassay was performed with several modifications. The seeds of Amaranthus caudatus var. atropurpurea were surface-sterilised in 10% N-chlorobenzenesulfonamide (w/v) for 10 min and washed 5 times in deionized water. They were placed in 15 cm Petri dishes containing paper tissues saturated with deionized water. After 72 h of cultivation at 25° C. in darkness, the roots of the seedlings were cut off. The explants, consisting of two cotyledons and hypocotyls, were placed in 5 cm Petri dishes on two layers of filter paper soaked in 1 ml of incubation medium containing 10 μmol NA2HPO4-KH2PO4, pH 6.8, 5 μmol tyrosine and the cytokinin to be tested. There were 20 explants per dish. The procedure was carried out under a green safe light in a darkroom. After a 48 h of incubation at 25° C. in darkness, betacyanin was extracted by freezing the explants in 4 ml […] acetic acid. The concentration of betacyanin was determined by comparing the absorbance at 537 nm and 620 nm as follows: ΔA=[…]-[…]. From the obtained data, the concentration with highest activity was selected for each compound tested. Relative activity of the compound at this concentration was calculated (Tab. 12). […] The values shown in table 8 are means of five replicates and the entire test was repeated twice. The cytokinins to be tested were dissolved in dimethylsulfoxide (DMSO) and the solution brought up to 10^-3M with distilled water. This stock was further diluted in the respective media used for the biotest to concentrations ranging from 10^-8M to 10^-4M. […] From the data obtained (FIG. 14) the maximum effective concentration of the tested compound was calculated as well as its relative effectiveness at this concentration (Table 12). […]

COc1ccc(O)c(CNc2ncnc3c2ncn3[C@@H]2O[C@H](CO)[C@@H](O)[C@H]2O)c1 [2-hydroxy-5-methoxybenzylamino, 6-(2-hydroxy-5-methoxybenzylamino)purine riboside]
IC50 [1]: 0.2 µM | IC50 [2]: 15.4 µM | IC50 (HOS): > 167 µM | IC50 (promyelocytic HL-60): 0.1 µM | IC50 [3]: 102 µM | IC50 [4]: 21 µM | IC50 (mouse fibroblasts NIH3T3): > 167 µM

OC[C@H]1O[C@@H](n2cnc3c(NCc4ccc(F)c(Cl)c4)ncnc32)[C@H](O)[C@@H]1O [3-chloro-4-fluorobenzylamino, 6-(3-chloro-4-fluorobenzylamino)purine riboside]
IC50 [1]: 3.4 µM | Concentration with highest activity [5]: 10^−4 mol · l^−1 | Activity (%) [10^−4 mol · l^−1 BAP = 100%] [5]: 156 ± 10% | IC50 [2]: 4.1 µM | IC50 (HOS): > 167 µM | Activity (%) [10^−5 mol · l^−1 BAP = 100%] [6]: 87 ± 4% | Concentration with highest activity [6]: 10^−6 mol · l^−1 | Concentration with highest activity [7]: 10^−4 mol · l^−1 | Activity (%) [10^−5 mol · l^−1 BAP = 100%] [7]: 82 ± 5% | IC50 (promyelocytic HL-60): 3.5 µM | IC50 [4]: > 167 µM | IC50 (mouse fibroblasts NIH3T3): > 167 µM

OC[C@H]1O[C@@H](n2cnc3c(NCc4ccc(Br)cc4)ncnc32)[C@H](O)[C@@H]1O [4-bromobenzylamino, 6-(4-bromobenzylamino)purine riboside]
IC50 [1]: 20.6 µM | Concentration with highest activity [5]: 10^−4 mol · l^−1 | Activity (%) [10^−4 mol · l^−1 BAP = 100%] [5]: 76 ± 11% | IC50 [2]: 68.2 µM | IC50 (HOS): > 167 µM | Activity (%) [10^−5 mol · l^−1 BAP = 100%] [6]: 15 ± 11% | Concentration with highest activity [6]: 10^−6 mol · l^−1 | Concentration with highest activity [7]: 10^−5 mol · l^−1 | Activity (%) [10^−5 mol · l^−1 BAP = 100%] [7]: 30 ± 8% | IC50 (promyelocytic HL-60): 47.4 µM | IC50 [4]: > 167 µM | IC50 (mouse fibroblasts NIH3T3): > 167 µM

OC[C@H]1O[C@@H](n2cnc3c(NCc4ccc(O)cc4)ncnc32)[C@H](O)[C@@H]1O [4-hydroxybenzylamino, 6-(4-hydroxybenzylamino)purine riboside]
IC50 [1]: 39.7 µM | IC50 [2]: > 167 µM | IC50 (HOS): > 167 µM | IC50 (promyelocytic HL-60): 9.5 µM | IC50 [3]: > 167 µM | IC50 [4]: > 167 µM | IC50 (mouse fibroblasts NIH3T3): > 167 µM

Cc1ccc(CNc2ncnc3c2ncn3[C@@H]2O[C@H](CO)[C@@H](O)[C@H]2O)cc1 [4-methylbenzylamino, 6-(4-methylbenzylamino)purine riboside]
IC50 [1]: > 167 µM | Concentration with highest activity [5]: 10^−4 mol · l^−1 | Activity (%) [10^−4 mol · l^−1 BAP = 100%] [5]: 55 ± 5% | IC50 [2]: > 167 µM | IC50 (HOS): > 167 µM | Activity (%) [10^−5 mol · l^−1 BAP = 100%] [6]: 95 ± 6% | Concentration with highest activity [6]: 10^−6 mol · l^−1 | Concentration with highest activity [7]: 10^−5 mol · l^−1 | Activity (%) [10^−5 mol · l^−1 BAP = 100%] [7]: 32 ± 7% | IC50 (promyelocytic HL-60): > 167 µM | IC50 [4]: > 167 µM | IC50 (mouse fibroblasts NIH3T3): > 167 µM

OC[C@H]1O[C@@H](n2cnc3c(NCc4cccc(Cl)c4O)nc(Cl)nc32)[C@H](O)[C@@H]1O [R2 = Cl, 2-hydroxy-3-chlorobenzylamino]
IC50 [1]: 0.2 µM | IC50 [2]: 10 µM | IC50 (HOS): > 167 µM | IC50 (promyelocytic HL-60): 0.1 µM | IC50 [3]: 118 µM | IC50 [4]: 14 µM | IC50 (mouse fibroblasts NIH3T3): > 167 µM
